Laboratory results taken from ChEMBL document CHEMBL6177995, “In Silico Discovery of Novel Potent Trace Amine-Associated Receptor TAAR1 Agonists as Promising Drug Candidates for the Treatment of Schizophrenia” (J Med Chem, 2025).

How the values were obtained:
[1] = molecular target: T1, Trace amine-associated receptor 1 (Homo sapiens, UniProt Q96RJ0); assay: Agonist activity at TAAR1 (unknown origin) transfected in HEK293 cells co-transfected with Galphaq-Nluc, Gbeta1/3 and Ggamma1/2/9-mVenus assessed as Galphaq-Gbeta/gamma dissociation by BRET assay; assay type: functional, cell-based
T1 sequence (Q96RJ0 whole entry): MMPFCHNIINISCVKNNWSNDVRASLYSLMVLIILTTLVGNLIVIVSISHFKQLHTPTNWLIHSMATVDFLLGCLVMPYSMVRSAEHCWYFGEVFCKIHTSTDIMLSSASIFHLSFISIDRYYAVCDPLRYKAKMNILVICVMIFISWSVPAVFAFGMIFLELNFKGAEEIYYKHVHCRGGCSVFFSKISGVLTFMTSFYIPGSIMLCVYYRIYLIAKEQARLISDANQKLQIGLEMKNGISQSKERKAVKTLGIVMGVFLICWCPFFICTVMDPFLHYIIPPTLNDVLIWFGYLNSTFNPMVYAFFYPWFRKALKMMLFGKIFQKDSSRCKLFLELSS

[2] = molecular target: T1, Trace amine-associated receptor 1; assay: Agonist activity at TAAR1 (unknown origin) transfected in HEK293 cells co-transfected with GalphaS-Nluc, Gbeta1/3 and Ggamma1/2/9-mVenus assessed as GalphaS-Gbeta/gamma dissociation by BRET assay; assay type: functional, cell-based

O=S(=O)(NC[C@@H]1CCCN1)c1ccccc1
EC50 [1]: > 10 µM
EC50 [2]: > 10 µM

O=c1[nH]c2ccc(S(=O)(=O)NC[C@@H]3CCCN3)cc2[nH]c1=O
EC50 [1]: 0.0055 µM

CNc1ncc(S(C)(=O)=O)c(C2CCCNC2)n1 (configuration not stated)
EC50 [2]: 0.0488 µM

O=S(=O)(NC[C@@H]1CCCN1)c1cccc(Cl)c1
EC50 [1]: > 10 µM
EC50 [2]: > 10 µM

COc1ccc(S(=O)(=O)NC[C@@H]2CCCN2)cc1
EC50 [1]: 0.0357 µM

O=S(=O)(NC[C@@H]1CCCN1)c1cc(F)cc(F)c1
EC50 [1]: > 10 µM
EC50 [2]: > 10 µM

O=S(=O)(NC[C@@H]1CCCN1)c1ccc(O)cc1
EC50 [1]: > 10 µM
EC50 [2]: > 10 µM

O=S(=O)(NC[C@@H]1CCCN1)c1ccc2c(c1)CCC2
EC50 [1]: > 10 µM
EC50 [2]: > 10 µM

Cc1ccccc1S(=O)(=O)NC[C@@H]1CCCN1
EC50 [1]: > 10 µM
EC50 [2]: > 10 µM

O=[N+]([O-])c1ccccc1S(=O)(=O)NC[C@@H]1CCCN1
EC50 [1]: > 10 µM
EC50 [2]: > 10 µM

O=S(=O)(NC[C@@H]1CCCN1)c1ccc(C(F)(F)F)cc1
EC50 [1]: > 10 µM
EC50 [2]: > 10 µM

O=c1[nH]c2cc(S(=O)(=O)NC[C@@H]3CCCN3)ccc2o1
EC50 [2]: 0.158 µM

O=[N+]([O-])c1ccc(S(=O)(=O)NC[C@@H]2CCCN2)cc1
EC50 [1]: > 10 µM
EC50 [2]: > 10 µM

O=S(=O)(NC[C@@H]1CCCN1)c1ccc(Br)cc1
EC50 [1]: > 10 µM
EC50 [2]: > 10 µM

O=c1[nH]c2ccc(S(=O)(=O)NC[C@@H]3CCCN3)cc2[nH]1
EC50 [1]: > 10 µM
EC50 [2]: > 10 µM

O=S(=O)(NC[C@@H]1CCCN1)c1ccccc1Br
EC50 [1]: > 10 µM
EC50 [2]: > 10 µM

CC(=O)Nc1ccc(S(=O)(=O)NC[C@@H]2CCCN2)cc1
EC50 [1]: 0.0416 µM

COc1ccccc1S(=O)(=O)NC[C@@H]1CCCN1
EC50 [1]: 0.0078 µM

O=S(=O)(NC[C@@H]1CCCN1)c1ccccc1C(F)(F)F
EC50 [1]: > 10 µM
EC50 [2]: > 10 µM
